The text below walks through data of US8709482B2, “Stabilised prostaglandin composition” (Ferring B.V., priority 2005, dated 2014).

Each structure is given as a SMILES string.

Data set [1] in a line: Stability study of misoprostol oil at 25° C. (HPLC content, physical form). The format is physicochemical. The protocol:
Misoprostol stability was tested over a period of 6 months. The misoprostol tested was the commercially available misoprostol in the form of an oil. Misoprostol was stored at a temperature of 25° C., and misoprostol content measured using HPLC at 0, 2, 4, 8 weeks and 3 and 6 months.

Data set [2] in a line: Comparative stability at 25° C. of dinoprostone bulk drug crystal and dinoprostone in polyurethane hydrogel. The format is physicochemical. The text has this: Measurements are taken at 0, 1, 2, 3, and 6 months. The following results are for comparative purposes only and are not intended to form part of the present invention.

With `CCCCC(C)(O)C/C=C/[C@H]1[C@H](O)CC(=O)[C@@H]1CCCCCCC(=O)OC` (mixture of isomers) [Misoprostol, (11α,13E)-(±)-11,16-Dihydroxy-16-methyl-9-oxoprost-13-en-1-oic acid methyl ester], the Misoprostol content in data set [1] (0) is 101.59 % w/w; in data set [1] (2 w), 99.61 % w/w; in data set [1] (3 m), 93.63 % w/w; in data set [1] (4 w), 98.59 % w/w; in data set [1] (6 m), 57.07 % w/w; in data set [1] (8 w), 96.87 % w/w. In addition, the Physical form result is “Colourless” in data set [1] (0); “Colourless” in data set [1] (2 w); “Straw” in data set [1] (3 m); “Colourless” in data set [1] (4 w); “Yellow” in data set [1] (6 m); “Clear” in data set [1] (8 w). For the same molecule, the “Stability (FIG. 1)” value in data set [1] (in the absence of polyurethane hydrogel) is reported as “degrades with time”.

On to `CCCCC[C@H](O)/C=C/[C@H]1[C@H](O)CC(=O)[C@@H]1C/C=C\CCCC(=O)O` [Dinoprostone], for which the “% potency” value in data set [2] (0 months) is recorded as 100 % potency; in data set [2] (1 month), 96 % potency; in data set [2] (3 months), 89 % potency; in data set [2] (6 months), 75 % potency.
